# According to patent US20040234476A1, “Cosmetic preparation with anti-wrinkle action” (priority 2001, published 2004):
# Where no end group is shown, it is not given here. The star is where a group is joined. Palmitoyl = CCCCCCCCCCCCCCCC(=O)*
# Tested on: cells
# Assay: in vitro studies of collagen and glycosaminoglycan synthesis by cells
# Assay type: cell-based
substance,measurement,value
palmitoyl-Lys-Thr-Thr-Lys-Ser (Palmitoyl-KTTKS) [lipopeptide],synthesis of collagen and glycosaminoglycans by cells,induces cells to synthesize collagen and glycosaminoglycans
